System: Tomato (var. Pink Girl)
Assay: Example 4: effect of enzymatically hydrolyzed protein and phytic acid on tomato growth in greenhouse mix
Type: in vivo
Procedure: Tomato (var. Pink Girl) were grown in a greenhouse mix (⅓ each of components, soil, peat moss and vermiculite). The treatments were arranged in randomized design with 3 replicates for each treatment. Seedlings were harvested and tops weighed forty six days after planting. Treatments included additions of phytic acid and protein hydrolyzate separately and in combination at different concentrations and applied to the soil and as foliar. First application, made two weeks after planting, was both as a foliar and to the soil (50 ml/plant). The second application, made two weeks following the first,) was both to soil (80 ml/plant) and as a foliar.

Structure (SMILES): O=P(O)(O)O[C@H]1[C@H](OP(=O)(O)O)[C@@H](OP(=O)(O)O)[C@H](OP(=O)(O)O)[C@@H](OP(=O)(O)O)[C@H]1OP(=O)(O)O [Phytic Acid, phytic acid]
- % of control (0.04% P2O5, Foliar): 109%
- Av. Top fresh wt. of plants (0.04% P2O5, Foliar): 27.0 gm
- % of control (0.04% P2O5, Soil application): 109%
- Av. Top fresh wt. of plants (0.04% P2O5, Soil application): 27.0 gm
- % of control (0.1% P2O5, Foliar): 107%
- Av. Top fresh wt. of plants (0.1% P2O5, Foliar): 26.3 gm
- % of control (0.1% P2O5, Soil application): 128%
- Av. Top fresh wt. of plants (0.1% P2O5, Soil application): 31.5 gm
